Experimental data published in patent US20260159512A1, “BCAT2 INHIBITORS” (AGIOS PHARMACEUTICALS, INC., priority 2021, published 2026).

What was measured:
Settings in all cases: average where tested multiple times
[1] = molecular target: T1, hBCAT1 (Homo sapiens, UniProt P54687); test: BCAT1 in vitro enzyme inhibition assay (resazurin/diaphorase-coupled fluorescence); format: biochemical
T1 sequence (P54687 1-386): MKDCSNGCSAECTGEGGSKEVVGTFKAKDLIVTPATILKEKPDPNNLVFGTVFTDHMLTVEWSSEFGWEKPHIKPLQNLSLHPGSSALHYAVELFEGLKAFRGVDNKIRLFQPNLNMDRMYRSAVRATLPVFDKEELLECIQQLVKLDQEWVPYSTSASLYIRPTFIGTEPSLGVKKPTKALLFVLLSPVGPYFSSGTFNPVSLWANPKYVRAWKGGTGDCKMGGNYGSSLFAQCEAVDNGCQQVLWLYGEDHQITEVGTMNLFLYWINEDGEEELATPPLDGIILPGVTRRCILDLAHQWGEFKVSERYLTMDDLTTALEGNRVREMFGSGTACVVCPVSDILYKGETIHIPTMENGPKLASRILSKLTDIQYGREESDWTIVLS
In short: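 Ten-point, 3-fold compound series (top final 100 μM, delivered 1:50 from 50× DMSO stocks) tested against hBCAT1. Inhibition detected via diaphorase-coupled resazurin fluorescence, duplicate wells, with values from repeated runs averaged.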

[2] = molecular target: T2, BCAT2 (Homo sapiens, UniProt O15382); test: BCAT2 in vitro enzyme inhibition assay (resazurin/diaphorase-coupled fluorescence); format: biochemical
T2 sequence (O15382 28-392): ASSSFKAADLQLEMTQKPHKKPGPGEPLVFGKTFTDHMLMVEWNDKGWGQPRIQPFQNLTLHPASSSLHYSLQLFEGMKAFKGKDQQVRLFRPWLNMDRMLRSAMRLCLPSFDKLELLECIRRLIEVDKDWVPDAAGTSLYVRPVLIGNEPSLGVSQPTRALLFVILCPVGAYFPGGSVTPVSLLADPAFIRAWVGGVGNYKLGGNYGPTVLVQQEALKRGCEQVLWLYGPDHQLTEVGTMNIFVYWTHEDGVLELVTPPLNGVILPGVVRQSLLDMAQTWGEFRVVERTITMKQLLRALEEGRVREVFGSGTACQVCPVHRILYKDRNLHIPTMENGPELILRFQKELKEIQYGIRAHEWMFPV
In short: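 Coupled fluorescence readout: glutamate formed from L-leucine/α-ketoglutarate transamination drives GDH/NAD/diaphorase reduction of resazurin (Ex 540/Em 590). Human BCAT2 was first exposed 1 h at room temperature to compound, top final 100 μM in 3-fold, 10-point series; substrate reaction ran 1 h before SDS quench, in technical duplicate with DMSO max and enzyme-free min controls.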

[3] = molecular target: T2, BCAT2; test: BCAT2 in vitro cell inhibition using engineered A549 cells (KMV cell assay, 13C6-KMV by LC-MS/MS); format: cell-based; set-up: The result was an engineered A549 cell line that expressed endogenous BCAT2; endogenous in cells; host or cells: A549 cells with MUT and BCAT1 knocked out by CRISPR/CAS9; key to BCAT2 Cell Inhibition: A: less than or equal to 0.100 μM; B: greater than 0.100 and less than or equal to 0.500 μM; C: greater than 0.500 and less than or equal to 1.000 μM; d: greater than 1.000 μM; E: no fit

| IC50 [1] [nM] | IC50 [2] [nM] | IC50 [3] [nM] | BCAT2 Cell Inhibition [3] | SMILES |
| --- | --- | --- | --- | --- |
| 1000 to 5000 | ≤ 100 | 500 to 1000 |  | CC(C)Cc1nc2cnc(-c3cccc(CO)n3)cc2n1[C@@H]1CCC[C@H](NC(=O)c2ncc(Cl)s2)C1 [Example 311, 5-chloro-N-((1S,3R)-3-(6-(6-(hydroxymethyl)pyridin-2-yl)-2-isobutyl-1H-imidazo[4,5-c]pyridin-1-yl)cyclohexyl)thiazole-2-carboxamide] |
| 500 to 1000 | ≤ 100 | 100 to 500 |  | O=C(N[C@H]1CCC[C@@H](n2c(-c3ccccc3F)nc3cnc(-c4ccccc4)cc32)C1)c1ncc(Cl)s1 [Example 204, 5-chloro-N-((1S,3R)-3-(2-(2-fluorophenyl)-6-phenyl-1H-imidazo[4,5-c]pyridin-1-yl)cyclohexyl)thiazole-2-carboxamide] |
| < 500 | ≤ 100 | ≤ 100 |  | O=C(N[C@H]1CCC[C@@H](n2c(-c3ncccc3F)nc3cnc(-c4ccn[nH]4)cc32)C1)c1ccc(Cl)s1 [Example 78, 5-chloro-N-((1S,3R)-3-(2-(3-fluoropyridin-2-yl)-6-(1H-pyrazol-5-yl)-1H-imidazo[4,5-c]pyridin-1-yl)cyclohexyl)thiophene-2-carboxamide] |
| < 500 | ≤ 100 | ≤ 100 |  | O=C(N[C@H]1CCC[C@@H](n2c(-c3ccccc3F)nc3cnc(-c4nc[nH]n4)cc32)[C@@H]1O)c1ccc(Cl)s1 [Example 399, 5-chloro-N-((1S,2R,3R)-3-(2-(2-fluorophenyl)-6-(1H-1,2,4-triazol-3-yl)-1H-imidazo[4,5-c]pyridin-1-yl)-2-hydroxycyclohexyl)thiophene-2-carboxamide] |
| > 5000 | 100 to 500 |  | E | CNC(=O)c1ccc2c(c1)nc(-c1ccccn1)n2C1CC(NC(=O)c2ccc(Br)s2)CN(C(C)=O)C1 (stereo not drawn) [Example 287, 1-(1-acetyl-5-(5-bromothiophene-2-carboxamido)piperidin-3-yl)-N-methyl-2-(pyridin-2-yl)-1H-benzo[d]imidazole-5-carboxamide] |
| < 500 | ≤ 100 | ≤ 100 |  | CC(C)Cc1nc2cnc(-c3nc[nH]n3)cc2n1[C@@H]1CCC[C@H](NC(=O)c2ncc(Cl)s2)[C@H]1O [Example 250, 5-chloro-N-((1S,2R,3R)-2-hydroxy-3-(2-isobutyl-6-(1H-1,2,4-triazol-3-yl)-1H-imidazo[4,5-c]pyridin-1-yl)cyclohexyl)thiazole-2-carboxamide] |
| 500 to 1000 | ≤ 100 | 100 to 500 |  | CC(C)(F)Cc1nc2cnc(-c3ccccn3)cc2n1[C@@H]1CCC[C@H](NC(=O)c2ncc(Cl)s2)C1 [Example 302, 5-chloro-N-((1S,3R)-3-(2-(2-fluoro-2-methylpropyl)-6-(pyridin-2-yl)-1H-imidazo[4,5-c]pyridin-1-yl)cyclohexyl)thiazole-2-carboxamide] |
| 1000 to 5000 | 100 to 500 | 100 to 500 |  | CC(C)C(=O)c1nc2cnc(-c3nc[nH]n3)cc2n1[C@@H]1CCC[C@H](NC(=O)c2ncc(Cl)s2)C1 [Example 187, 5-chloro-N-((1S,3R)-3-(2-isobutyryl-6-(1H-1,2,4-triazol-3-yl)-1H-imidazo[4,5-c]pyridin-1-yl)cyclohexyl)thiazole-2-carboxamide] |
| < 500 | ≤ 100 | ≤ 100 |  | Cc1cnn(-c2cc3c(cn2)nc(CC(C)C)n3[C@@H]2CCC[C@H](NC(=O)c3ncc(Cl)s3)[C@H]2O)n1 [Example 243, 5-chloro-N-((1S,2R,3R)-2-hydroxy-3-(2-isobutyl-6-(4-methyl-2H-1,2,3-triazol-2-yl)-1H-imidazo[4,5-c]pyridin-1-yl)cyclohexyl)thiazole-2-carboxamide] |

More lines, now with the values behind:

| SMILES | IC50 [1] [nM] | IC50 [2] [nM] | IC50 [3] [nM] | BCAT2 Cell Inhibition [3] |
| --- | --- | --- | --- | --- |
| Cc1cnn(-c2cc3c(cn2)nc(-c2ccccn2)n3[C@@H]2CCC[C@H](NC(=O)c3ccc(Br)s3)C2)n1 [Example 39, 5-bromo-N-((1S,3R)-3-(6-(4-methyl-2H-1,2,3-triazol-2-yl)-2-(pyridin-2-yl)-1H-imidazo[4,5-c]pyridin-1-yl)cyclohexyl)thiophene-2-carboxamide] | < 500 | ≤ 100 | ≤ 100 |  |
| O=C(N[C@H]1CCC[C@@H](n2c(-c3c(O)cccc3F)nc3cnc(-n4nccn4)cc32)C1)c1ncc(Cl)s1 [Example 354, 5-chloro-N-((1S,3R)-3-(2-(2-fluoro-6-hydroxyphenyl)-6-(2H-1,2,3-triazol-2-yl)-1H-imidazo[4,5-c]pyridin-1-yl)cyclohexyl)thiazole-2-carboxamide] | < 500 | ≤ 100 | ≤ 100 |  |
| O=C(N[C@H]1CCC[C@@H](n2c(-c3ncccc3F)nc3cnc(-n4cncn4)cc32)C1)c1ccc(Br)s1 [Example 16, 5-bromo-N-((1S,3R)-3-(2-(3-fluoropyridin-2-yl)-6-(1H-1,2,4-triazol-1-yl)-1H-imidazo[4,5-c]pyridin-1-yl)cyclohexyl)thiophene-2-carboxamide] | < 500 | ≤ 100 | ≤ 100 |  |
| CC(C)Cc1nc2cnc(-c3ccn(C(F)F)n3)cc2n1[C@@H]1CCC[C@H](NC(=O)c2ncc(Cl)s2)[C@H]1O [Example 230, 5-chloro-N-((1S,2R,3R)-3-(6-(1-(difluoromethyl)-1H-pyrazol-3-yl)-2-isobutyl-1H-imidazo[4,5-c]pyridin-1-yl)-2-hydroxycyclohexyl)thiazole-2-carboxamide] | 500 to 1000 | ≤ 100 | > 1000 |  |
| CO[C@H]1C[C@@H](NC(=O)c2ncc(Cl)s2)C[C@@H](n2c(-c3ccccc3F)nc3cnc(-c4nc[nH]n4)cc32)C1 (stereo in doubt) [Example 420, 5-chloro-N-((1S,3R,5S)-3-(2-(2-fluorophenyl)-6-(1H-1,2,4-triazol-3-yl)-1H-imidazo[4,5-c]pyridin-1-yl)-5-methoxycyclohexyl)thiazole-2-carboxamide] | < 500 | ≤ 100 | ≤ 100 |  |
| O=C(NC1CCCCC(n2c(-c3ccccn3)nc3cnc(-n4nccn4)cc32)C1)c1ncc(C(F)F)s1 (stereo not drawn) [Example 4, 5-(difluoromethyl)-N-(3-(2-(pyridin-2-yl)-6-(2H-1,2,3-triazol-2-yl)-1H-imidazo[4,5-c]pyridin-1-yl)cycloheptyl)thiazole-2-carboxamide] | > 5000 | ≤ 100 | 500 to 1000 |  |
| CC(=O)N1CC(NC(=O)c2ncc(C(F)F)s2)CC(n2c(-c3ccccn3)nc3cnc(-n4ccnn4)cc32)C1 (stereo not drawn) [Example 122, N-(1-acetyl-5-(2-(pyridin-2-yl)-6-(1H-1,2,3-triazol-1-yl)-1H-imidazo[4,5-c]pyridin-1-yl)piperidin-3-yl)-5-(difluoromethyl)thiazole-2-carboxamide] | > 5000 | 100 to 500 |  | E |
| COC(=O)N1C[C@H](NC(=O)c2ccc(Cl)s2)C[C@H](n2c(-c3ccccc3F)nc3cnc(-c4nc[nH]n4)cc32)C1 [Example 462, methyl (3R,5S)-3-(5-chlorothiophene-2-carboxamido)-5-(2-(2-fluorophenyl)-6-(1H-1,2,4-triazol-3-yl)-1H-imidazo[4,5-c]pyridin-1-yl)piperidine-1-carboxylate] | < 500 | ≤ 100 | ≤ 100 |  |
